Legend:
[1] = test system: circulating tumor cells (CTCs); test: Salicinium induction of apoptosis in cultured circulating tumor cells from patient samples; format: cell-based, human
Excerpt: Circulating tumor cells (CTCs) were isolated and characterized from patients with diverse diagnoses of cancer (including a wide variety of primary cancer types, with and without metastasis) using conventional flow cytometry modified to a multiparameter flow cytometric panel employing magnetic bead separation methods to characterize CTCs and isolate them from patient blood samples. In one exemplary modified procedure for isolating and characterizing CTCs from breast cancer patients, the flow cytometry panel included CD45-PE/Cy7, CD31-RPE, pan cytokeratin-PE/Cy5, c-met-PE and MUC-1(CD227)-FITC. CTCs were identified as CD45-/CD31-/PanCK+/MUC1+and metastatic cells as CD45-/c-met+. CTC isolation and cultivation utilized PBMCs from patients isolated using ficoll centrifugation methods and incubated with EpCAM magnetic beads to isolate the CTCs.
Isolated CTCs were cultured in serum free RPMI medium. […] Apoptosis quantification was based on observed cytoplasmic, nuclear and membrane changes diagnostic for apoptosis. In early stage of apoptosis, cells expand and become round, detach from adjacent cells or substrate and shrink. In the cytoplasm, the endoplasmic reticulum expands and turns vacuolar. In the nucleus, chromatin condenses in a crescent form around the nuclear membranes and becomes more basophilic. Eventually the nucleus fragments and cells convert to apoptotic bodies in containing fragmented nuclear and cellular materials. In vivo these apoptotic bodies are recognized and digested by phagocytes without raising inflammatory responses.
Data were analyzed using SPSS software, and T test methodology was used to compare data sets. A significance level of p<0.05 was considered statistically significant.

[2] = test system: EBV, hepatitis C, CMV and herpes II virus; test: Viral load assays in treated patients; format: in vivo, human
Excerpt: These patients were selected as having been diagnosed with a heavy load, chronic viral infection and/or Stage IV cancer. Some of these subjects presented with only viral infection, and some with only Stage IV cancer, whereas a sizeable group of 64 subjects had co-morbid Stage IV cancer attended by a heavy load chronic viral infection. The principal viral subjects in these studies were Epstein Barr virus (EBV), hepatitis C virus, cytomegalovirus (CMV) and herpes virus.
Nagalase levels and viral load were quantified using conventional assays for each patient, before and after successive iv Salicinium® treatments, and after extended oral Salicinium follow-on therapy (using the […] and oral treatment protocol described in Example II, above).

caspase-9 = test: Caspase-9 levels in Salicinium-treated versus control CTC samples; format: cell-based, human; settings: diverse CTCs from different cancer types
Excerpt: Additional studies evaluated caspase levels in CTC samples treated or untreated with Salicinium. Caspases are major executants of apoptosis. […] During apoptosis these pro-enzymes are converted into active enzymes which mediate apoptosis in part by degrading intracellular proteins, for example cytoskeletal proteins, causing profound morphological changes of cells. Caspase-3 is activated by upstream caspases (caspase-8, caspase-9 or caspase-10), and in turn Caspase-3 activates endonuclease CAD (caspase activated DNase). […] In apoptosis, ICAD is cut by caspase-3 and release CAD, followed by rapid fragmentation of DNA.
Caspase-9 levels were compared in control CTC samples and Salicinium-treated CTC samples according to conventional assay methods.

[3] = test system: proliferating cancer and non-cancer cells and viral-infected cells; test: Salicinium uptake into proliferating and viral-infected cells; format: cell-based
[4] = 967 patient CTC samples, helicidum 0.5 mg/ml, 24 hours

What does the source list for “4-(beta-D-allopyranosyloxy)-benzaldehyde [Salicinium]”?
patient CTC samples showing no detectable apoptotic activity [1, 4]: 18%; patient CTC samples showing statistically significant sensitivity to induction of apoptosis [1, 4]: 82%; CTC cells in sample undergoing apoptosis ([1]; majority of other cancer types tested, single exposure, 24-hour test period): 20-25%; CTC cells in sample undergoing apoptosis ([1]; more sensitive cancer types: lung, colorectal, sarcoma and renal cancer, single dose, 24 hours): 30-35%; treated subjects in whom high load viral infection became undetectable ([2]; EBV and herpes II subjects, within six months following initial iv treatment): 50%; drop in median viral loads ([2]; EBV, hepatitis C, CMV and herpes II, first month): 20-25%; additional drop in median viral loads ([2]; EBV, hepatitis C, CMV and herpes II, within three months after treatment): 20%; viral subjects entirely clear of detectable virus ([2]; EBV, hepatitis C, herpes virus and CMV, after one year): 87%; caspase-9 levels in treated versus control CTC samples (caspase-9): potent induction of elevated caspase-9 levels; increase of Salicinium uptake compared to healthy cells ([3]; often): 2-5 times; increase of Salicinium uptake compared to healthy cells ([3]; routinely, GLUT-mediated and other glycome transport): 50-100%; increase of Salicinium uptake compared to healthy cells ([3]; up to): 10-15 times
